Data published in ChEMBL document CHEMBL2029335, “Synthesis, X-ray analysis, and biological evaluation of a new class of stereopure lactam-based HIV-1 protease inhibitors” (J Med Chem, 2012).

Legend:
Protease = Protease (Human immunodeficiency virus 1, UniProt Q9YQ12); experiment: Inhibition of HIV1 protease expressed in Escherichia coli using DABCYL-Abu-Ser-Gln-ASN-Tyr-Pro-Ile-Val-Gln-EDANS as substrate preincubated for 20 mins measured for 45 mins by fluorometry
[1] = system: Human immunodeficiency virus 1; experiment: Antiviral activity against HIV1 infected in human MT4 cells; format: functional, organism-based; settings: Human immunodeficiency virus 1, MT4
MT4 = experiment: Cytotoxicity against human MT4 cells after 5 days by XTT assay; format: cell-based; settings: mt4, 120 h
[2] = (§1) Intrinsic clearance in human liver microsomes at 1 uM after 30 mins by LC-MS/MS analysis; format: ADME, Microsome; settings: liver microsomes, read-out: CLH
Liver microsomes = experiment: as §1; format: ADME, Microsome; settings: microsomes, 0.5 h, 1 µM
Caco-2 = experiment: Apparent permeability from apical to basolateral side in human Caco2 cells after 60 mins; format: ADME, cell-based; settings: caco-2, 1 h

Chain of Protease (Q9YQ12 whole entry): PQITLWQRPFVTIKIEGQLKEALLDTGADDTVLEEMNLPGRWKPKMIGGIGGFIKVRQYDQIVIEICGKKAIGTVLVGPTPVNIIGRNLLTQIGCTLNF

In the case of `COC(=O)N[C@H](C(=O)NN(CC[C@@]1(Cc2ccccc2)C(=O)N([C@H]2c3ccccc3C[C@H]2O)C[C@H]1O)Cc1ccc(-c2ccncc2)cc1)C(C)(C)C`, the Ki (Protease) is reported as 0.0004 µM, the EC50 [1] is reported as 0.04 µM and the CC50 (MT4) is reported as > 50 µM.

`COC(=O)N[C@H](C(=O)NN(CC[C@@]1(Cc2ccccc2)C(=O)N([C@H]2c3ccccc3C[C@H]2O)C[C@@H]1O)Cc1ccc(-c2ccncc2)cc1)C(C)(C)C` showed a Ki (Protease) of 0.0017 µM and an EC50 [1] of 0.096 µM.

With `COC(=O)N[C@H](C(=O)N[C@@H](Cc1ccccc1)[C@@H](O)CN(Cc1ccc(-c2ccccn2)cc1)NC(=O)[C@@H](NC(=O)OC)C(C)(C)C)C(C)(C)C` [ATAZANAVIR] the microsomal CLint at 1 µM [2] was 90 µL/min/mg and the EC50 [1] was 0.0039 µM.

In the case of `COC(=O)N[C@H](C(=O)NN(CC[C@@]1(Cc2ccccc2)C(=O)N([C@H]2c3ccccc3C[C@H]2O)C[C@H]1O)Cc1ccc(-c2cccnc2)cc1)C(C)(C)C`, the Ki (Protease) is reported as 0.0008 µM, the CLH (Liver microsomes) is reported as 230 µL/min/mg and the EC50 [1] is reported as 0.04 µM. The CC50 (MT4) was > 50 µM and the Papp (Caco-2) was 3.8 ×10⁻⁶ cm/s.

For `COC(=O)N[C@H](C(=O)NN(CC[C@@]1(Cc2ccccc2)C(=O)N([C@H]2c3ccccc3C[C@H]2O)C[C@H]1O)Cc1ccc(Br)cc1)C(C)(C)C`, the Ki (Protease) was 0.0021 µM, the CLH (Liver microsomes) was > 300 µL/min/mg and the EC50 [1] was 0.64 µM. For the same molecule, the CC50 (MT4) was > 50 µM.

For `COC(=O)N[C@H](C(=O)NN(CC[C@@]1(Cc2ccccc2)C(=O)N([C@H]2c3ccccc3C[C@H]2O)C[C@@H]1O)Cc1ccc(-c2ccccn2)cc1)C(C)(C)C`, the Ki (Protease) was 0.002 µM, the EC50 [1] was 0.18 µM and the CC50 (MT4) was > 50 µM.

`COC(=O)N[C@H](C(=O)NN(CCC1(Cc2ccccc2)C(=O)N([C@H]2c3ccccc3C[C@H]2O)CC1O)Cc1ccc(-c2ccncc2)cc1)C(C)(C)C` (stereo not given in full) showed a Ki (Protease) of 0.0008 µM.

With `COC(=O)N[C@H](C(=O)NN(CCC[C@@]1(Cc2ccccc2)C(=O)N([C@H]2c3ccccc3C[C@H]2O)C[C@H]1O)Cc1ccc(Br)cc1)C(C)(C)C` the Ki (Protease) was 0.013 µM, the CLH (Liver microsomes) was > 300 µL/min/mg and the EC50 [1] was 3.9 µM. It also gave a CC50 (MT4) of 26 µM and a Papp (Caco-2) of 22 ×10⁻⁶ cm/s.

For `COC(=O)N[C@H](C(=O)NN(CC[C@]1(Cc2ccccc2)C(=O)N([C@H]2c3ccccc3C[C@H]2O)C[C@H]1O)Cc1ccc(Br)cc1)C(C)(C)C`, the Ki (Protease) was 1.2 µM, the EC50 [1] was > 10 µM and the CC50 (MT4) was 15 µM.

Molecule `COC(=O)N[C@H](C(=O)NN(CC[C@@]1(Cc2ccccc2)C(=O)N([C@H]2c3ccccc3C[C@H]2O)C[C@@H]1O)Cc1ccc(Br)cc1)C(C)(C)C` has a Ki (Protease) of 0.0064 µM, an EC50 [1] of 0.35 µM and a Papp (Caco-2) of 17 ×10⁻⁶ cm/s.

Work on `COC(=O)N[C@H](C(=O)NN(CC[C@@]1(Cc2ccccc2)C(=O)N([C@H]2c3ccccc3C[C@H]2O)C[C@H]1O)Cc1ccc(-c2ccccn2)cc1)C(C)(C)C` yielded a Ki (Protease) of 0.0017 µM, an EC50 [1] of 0.19 µM and a CC50 (MT4) of 28 µM.

For `COC(=O)N[C@H](C(=O)NN(CC[C@]1(Cc2ccccc2)C(=O)N([C@H]2c3ccccc3C[C@H]2O)C[C@@H]1O)Cc1ccc(Br)cc1)C(C)(C)C`, the Ki (Protease) was 0.94 µM and the EC50 [1] was > 10 µM.

`COC(=O)N[C@H](C(=O)NN(CCC[C@@]1(Cc2ccccc2)C(=O)N([C@H]2c3ccccc3C[C@H]2O)C[C@H]1O)Cc1ccc(-c2ccncc2)cc1)C(C)(C)C` showed an EC50 [1] of 0.7 µM and a CC50 (MT4) of 5.9 µM.

Work on `COC(=O)N[C@H](C(=O)NN(CCC[C@@]1(Cc2ccccc2)C(=O)N([C@H]2c3ccccc3C[C@H]2O)C[C@H]1O)Cc1ccc(-c2ccccn2)cc1)C(C)(C)C` yielded a Ki (Protease) of 0.0063 µM, a CLH (Liver microsomes) of 130 µL/min/mg and an EC50 [1] of 2.5 µM. The CC50 (MT4) was 31 µM and the Papp (Caco-2) was 3.4 ×10⁻⁶ cm/s.

Work on `COC(=O)N[C@H](C(=O)NN(CCC[C@@]1(Cc2ccccc2)C(=O)N([C@H]2c3ccccc3C[C@H]2O)C[C@H]1O)Cc1ccc(-c2ccccc2)cc1)C(C)(C)C` yielded a Ki (Protease) of 0.012 µM, an EC50 [1] of 0.85 µM and a CC50 (MT4) of 15 µM.

With `COC(=O)N[C@H](C(=O)NN(CCC[C@@]1(Cc2ccccc2)C(=O)N([C@H]2c3ccccc3C[C@H]2O)C[C@H]1O)Cc1ccc(-c2cccnc2)cc1)C(C)(C)C` the Ki (Protease) was 0.0053 µM, the CLH (Liver microsomes) was 122 µL/min/mg and the EC50 [1] was 1.8 µM. It also gave a CC50 (MT4) of 23 µM and a Papp (Caco-2) of 4.4 ×10⁻⁶ cm/s.

`COC(=O)N[C@H](C(=O)NN(CC[C@@]1(Cc2ccccc2)C(=O)N([C@H]2c3ccccc3C[C@H]2O)C[C@@H]1O)Cc1ccc(-c2cccnc2)cc1)C(C)(C)C` showed a Ki (Protease) of 0.0007 µM, a CLH (Liver microsomes) of 120 µL/min/mg and an EC50 [1] of 0.1 µM. The Papp (Caco-2) was 5.1 ×10⁻⁶ cm/s.

For `COC(=O)N[C@H](C(=O)NN(CC[C@@]1(Cc2ccccc2)C(=O)N([C@H]2c3ccccc3C[C@H]2O[Si](C)(C)C(C)(C)C)C[C@H]1O[Si](C)(C)C(C)(C)C)Cc1ccc(Br)cc1)C(C)(C)C`, the Ki (Protease) was 0.76 µM, the EC50 [1] was > 10 µM and the CC50 (MT4) was > 50 µM.

In the case of `COC(=O)N[C@H](C(=O)NN(CC[C@@]1(Cc2ccccc2)C(=O)N([C@H]2c3ccccc3C[C@H]2O[Si](C)(C)C(C)(C)C)C[C@@H]1O[Si](C)(C)C(C)(C)C)Cc1ccc(Br)cc1)C(C)(C)C`, the Ki (Protease) is reported as 0.8 µM and the EC50 [1] is reported as > 10 µM.
